One test has as its system advanced PDAC patients. Also noted: method as in Moore et al, 2007. The following applies: Erlotinib + GEM, ref Moore et al, 2007; cited from earlier work.
Another test concerns PSN-1. The test is described as follows: cells. Also noted: Viability of PDAC cell lines, ATPlite luminescence, 11-dose single-agent curve fit. The following applies: Homo sapiens, PSN1, 72 h, read-out: EC50 [nM]. The method, boiled down: (§1)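 cells (1000 to 5000 per well) seeded 24 h before drug addition in a screen at 0.2% final DMSO. Controls were drug-free wells (negative) and 5 µM staurosporine (positive).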

Another test deals with PANC-1. The test is described as follows: cells. Further details: Viability of PDAC cell lines, ATPlite luminescence, 11-dose single-agent curve fit. The following applies: Homo sapiens, PANC-1, 72 h, read-out: EC50 [nM]. In short, it runs like this: as §1
Another test deals with Capan-1. The test is described as follows: cells. Further details: Viability of PDAC cell lines, ATPlite luminescence, 11-dose single-agent curve fit. The following applies: Homo sapiens, CAPAN-1, 72 h, read-out: EC50 [nM]. In short, it runs like this: as §1
The next test has as its system HuP-T4. The test can be described thus: cells. Also noted: Viability of PDAC cell lines, ATPlite luminescence, 11-dose single-agent curve fit. The following applies: Homo sapiens, HuP-T4, 72 h, read-out: EC50 [nM]. The method, boiled down: as §1
The subject of a further test is PaTu-8988-T. The test is described as follows: cells. Further details: Viability of PDAC cell lines, ATPlite luminescence, 11-dose single-agent curve fit. Particulars: Homo sapiens, PaTu 8988t, 72 h, read-out: EC50 [nM]. In short, it runs like this: as §1
The subject of a further test is MiaPaCa-2. The test can be described thus: cells. Further details: Viability of PDAC cell lines, ATPlite luminescence, 11-dose single-agent curve fit. Particulars: Homo sapiens, MIA PaCa-2, 72 h, read-out: EC50 [nM]. In short, it runs like this: as §1
A further test concerns AsPC-1. The test can be described thus: cells. Further details: Viability of PDAC cell lines, ATPlite luminescence, 11-dose single-agent curve fit. The following applies: Homo sapiens, ASPC1, 72 h, read-out: EC50 [nM]. In short, it runs like this:
as §1

The next test deals with Colo-357. The test is described as follows: cells. Also noted: ATPlite luminescence viability of PDAC cell lines, 11-dose single-agent curves, 4-parameter fit. Particulars: Homo sapiens, COLO357, 72 h, read-out: EC50 [nM]. The method, boiled down:
(§2)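 cells (1000 to 5000 per well) seeded 24 h before drug addition in a combination screen at 0.2% final DMSO. Controls were drug-free wells (negative) and 5 µM staurosporine (positive).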

A further test deals with HPDE. The test can be described thus: cells. The following applies: HPDE, 72 h, read-out: EC50 [nM]. Also noted: ATPlite luminescence viability of PDAC cell lines, 11-dose single-agent curves, 4-parameter fit. In short, it runs like this:
as §2

The next test has as its system Suit2-07. The test is described as follows: cells. Also noted: ATPlite luminescence viability of PDAC cell lines, 11-dose single-agent curves, 4-parameter fit. Particulars: 72 h, read-out: EC50 [nM]. The method, boiled down:
as §2

The subject of a further test is FAMPAC. The test can be described thus: cells. Also noted: ATPlite luminescence viability of PDAC cell lines, 11-dose single-agent curves, 4-parameter fit. The following applies: 72 h, read-out: EC50 [nM]. The method, boiled down: as §2
The subject of another test is BxPC-3. The test can be described thus: cells. Further details: ATPlite luminescence viability of PDAC cell lines, 11-dose single-agent curves, 4-parameter fit. Particulars: Homo sapiens, BXPC-3, 72 h, read-out: EC50 [nM]. In short, it runs like this:
as §2

Another test has as its system Dan-G. The test is described as follows: cells. Further details: ATPlite luminescence viability of PDAC cell lines, 11-dose single-agent curves, 4-parameter fit. The following applies: 72 h, read-out: EC50 [nM]. The method, boiled down:
as §2

Turning to `C#Cc1cccc(Nc2ncnc3cc(OCCOC)c(OCCOC)cc23)c1` [Erlotinib], the “improvement of overall survival over GEM alone” value with advanced PDAC patients is “two weeks”. In addition, the EC50 in the test with PSN-1 stood at 5920 nM; in the test on PANC-1, 36.8 nM; in the test on Capan-1, 2940 nM; with HuP-T4, 8400 nM; with PaTu-8988-T, 5260 nM; in the test on MiaPaCa-2, 4050 nM. The concentration giving a half-maximal response (EC50) with AsPC-1 is above 10000 nM; in the test on Colo-357, 1040 nM; with HPDE it was 552 nM; in the test with Suit2-07, above 10000 nM; with FAMPAC, 3940 nM; with BxPC-3 it was 2060 nM. Further, the EC50 in the test with Dan-G is 630 nM.

The record behind these values is article PMC11876601 (Molecular Systems Biology, 2025).
